Values quoted from earlier work in patent publication US20080247985A1, “Composition base containing solubilized allantoin and urea for topical preparations” (priority 2007, published 2008).

Details: water at 25 °C

NC(=O)NC1NC(=O)NC1=O (stereo not shown) [allantoin, (2,5-dioxo-4-imidazolidinyl) urea]
Solubility in water: 0.45%
